From patent publication US20060148714A1, “Therapeutic peptide-based constructs” (priority 1999, published 2006)
Converted amounts (≈) assume the structure as drawn. Where a SMILES comes first, the peptide text is derived from it. Where no end group is shown, it is not given here. [ ]: non-standard residue; d: D form. d1Nal = N[C@H](Cc1cccc2ccccc12)C(=O)O

What was measured:
[1] = tested on: Factor Xa neutralization by ATIII/heparin complexes; experiment: Chromostrate heparin anti-Factor Xa assay (heparin neutralization); format: biochemical; conditions: absorbance at 405 nm
Description: A Chromostrate™ assay was used to determine the effect of peptide-based constructs, including derivatized constructs, and the effect protamine sulfate (as a positive control) on Factor Xa neutralization by ATIII/heparin complexes. The assay was conducted using a Chromostrate™ heparin anti-Factor Xa assay kit (Organon Teknika Corp., Durham, N.C.). Heparin concentration was varied so that a heparin standard curve was generated. The assay measured the potentiating effect of heparin on anti-Xa activity in vitro. Solution containing heparin is incubated in the presence of ATIII with an excess of Factor Xa, forming an ATIII-Heparin-Xa complex. The remaining Xa catalyzes the release of p-nitroaniline (pNA) from the chromogenic substrate. The release of p-nitroaniline is measured at 405 nm. The absorbance obtained in inversely porportional to the concentration of heparin in the sample.
Reagents for the assay are prepared as follows. Heparin, peptide-based constructs and protamine sulfate stocks are made in saline. Stock solutions are approximately 1 mg/mL=1 μg/μL. Factor Xa reagent and substrate reagent are reconstituted with 2.0 mL purified water. Antithrombin III (ATIII) reagent is reconstituted with 1.0 mL purified water. The assay is performed in 96 well microtiter plates. Assay components are added to the microtiter wells as follows: 12.5 μl of heparin (from 0 to 10 U/mL), 25 μl of construct or protamine sulfate, 12.5 μL of ATIII (0.5 PEU/mL), 25 μL of bovine Factor Xa (14 nKat/mL), 25 μL substrate (3 μmoles/mL). The reaction is allowed to proceed for 20 minutes and then 25 μL of 0.1 M acetic acid is added. The color reaction is quantitated on a microplate reader at 405 nm. Constructs that neutralize heparin show an increase in the absorbance at 405 nm. Protamine is used as a positive control and its activity is designated as 100%. The percent (%) heparin neutralization for each peptide construct is calculated relative to the neutralization by protamine (100%), and shown in Table IV.

[2] = tested on: human umbilical vein endothelial cells (HUVEC); format: cell-based; conditions: 72 h
Description: Briefly, human umbilical vein endothelial cells (HUVEC) were cultured in EGM-2 medium (Clonetics Corp., San Diego, Calif.), harvested and plated onto a 96-well culture plate. After 24 hours of quiescence, the cells were co-cultured with various peptide-based constricts in the presence of growth factors for 72 hours to test their activity. Cell proliferation was quantitated by tritiated thymidine incorporation into DNA and was expressed in counts per minute (cpm).
Details of the experimental procedures were as follows: HUVEC cells were cultured in EGM-2 media from Clonetics Corp., a subsidiary of BioWhittaker, Inc., San Diego, Calif. [EGM-2 is Endothelial Cell Basal Medium-2 (EMB-2) supplemented with growth factors (hFGF-B, VEGF, IGF-1, hEGF) ascorbic acid, heparin, GA-1000 and 2% FBS), in T75 flasks until confluent (˜4-7 days). Cells were harvested by trypsinizing the cells using 0.025% trypsin/EDTA for 5 minutes. To stop the reaction, 2-5% FBS was added. The cells were centrifuged and washed 3 times using Hank's Balanced Salt Solution (HBSS) or Dulbecco's Phosphate Buffered Saline D-PBS. The pellet was then resuspended in EBM-2 supplemented with 0.1% FBS and GA-1000 was used. The cells were counted and a cell suspension was prepared at 2×10^5/mL in EBM-2 with 0.1% FBS; cells were dispensed into a 96-well flat bottomed culture plate at 0.1 mL/well (total: ˜20,000 cells/well in 0.1% FBS-EBM-2). Incubation continued at 37° C. in 5% CO2 for 20-24 hours. The next day peptide-based constructs were prepared for testing in a 96 well plate. The supernatant was aspirated from the cell-well, replaced with EBM-2 or the testing reagent at 20 μL/well. Then, 180 μL/well of 1.12% FBS-GFS were added to make a final concentration of 1% FBS-GFS in EBM-2. This aspiration and addition was done well-by-well. ^3H-thymidine (100 μCi/mL) was added at 10 μL/well (1 μCi/well, final). Incubation continued at 37° C., 5% CO2 for 72 hours. To harvest the plate, the supernatant was aspirated off from the cell-well and then 75 μL-100 μL/well of 0.025% trypsin-EDTA was added. After incubation for 8-10 minutes at room temperature in the hood, the cells were checked and 100 μL/well of 2-5% FBS-PBS was added to stop the reaction. The plate was then harvested, dried and counted using an Inotech cell harvester (Inotech Biosystems, INB-384, Sample Processing and Filter Counting System, Lansing, Mich.).

[3] = tested on: bFGF-induced angiogenesis; experiment: In vivo Matrigel angiogenesis assay (hemoglobin content of excised gel); conditions: 10 μg peptide construct per gel; hemoglobin of gel excised ten days after s.c. injection; C57BL/6J mice
Description: For these experiments, peptide-based constructs according to the invention were assayed for their ability to inhibit heparin-induced angiogenesis in vivo in mice. Basement membrane matrix (Matrigel®, Becton Dickinson Labware, Mountain View, Calif.) was thawed and maintained at 4° C. and angiogenic factors were added to the gel in the liquid state generally as described in Passaniti et al., 1992, Lab. Invest. 67: 519-528. Heparin sodium (Sigma, St. Louis, Mo.) was dissolved in sterile PBS to various concentrations ranging from 1,250-10,000 U/mL, and used in these experiments at 8,000 U/mL. Human recombinant basic fibroblast growth factor (bFGF; Sigma) was reconstituted into 1. % BSA in PBS to 25 μg/mL. A volume of 2.5 μL dissolved heparin solution and 4.0 μL recombinant bFGF were added to 0.5 mL Matrigel® mixture per mouse injection. Peptide-based constructs were added to this Matrigel® mixture at varying concentrations ranging from 0.5 to 50 μg/mL (final concentration) in 10 μL/0.5 mL Matrigel® aliquot per experimental animal. Ten μL sterile PBS was substituted for peptide-based constructs in Matrigel® aliquots injected into control animals.
Female C57BL/6J mice (Jackson Laboratory, Bar Barbor, Me.) at 6-8 weeks of age (maintained under NIH guidelines) were injected subcutaneously down the dorsal midline with 0.5 mL aliquots of Matrigel® prepared as described above. Ten days after injection, the Matrigel® gels were excised and placed in Drabkin's reagent (Sigma). Total protein and hemoglobin content can be determined for the gels stored in Drabkin's reagent after mechanical homogenization of the gels. Hemoglobin concentration was measured using Sigma Procedure #525 and reagents supplied by Sigma (St. Louis, Mo.) to be used with this procedure. If desired, total protein levels are determined using a microplate assay that is commercially embodied in a kit (DC Protein Assay, Bio-Rad, Richmond, Calif.).
Gels to be used for histological staining are formalin-fixed immediately after excision from the animals rather than being placed in Drabkin's reagent. Formalin-fixed gels are embedded in Tissue-Tek O.C.T. compound (Miles, Inc., Elkhart, Ind.) for frozen sectioning. Slides of frozen sections are stained with hematoxylin and eosin (as described by Humason, 1979, Animal Tissue Techniques, 4th Ed. W.H. Feeman & Co., San Francisco, Calif., Ch. 9, pp. 111-131). The effect of peptides are detected by microscopic examination of frozen stained sections for inhibition of angiogenesis relative to Matrigel® gel slices prepared without added peptides. The extent of angiogenesis inhibition is quantitated using the normalized amounts of hemoglobin found in BPI peptide-containing gel slices.
Data are presented as the means of triplicate determinations of hemoglobin concentrations from the excised gel (ISEM) with ten mice per group.

LPS = experiment: RAW cell assay of LPS neutralization; format: cell-based
[4] = tested on: E. coli (J5 and 0111 B4), Staphylococcus aureus and Candida albicans; experiment: Broth and/or radial diffusion antimicrobial assays; format: cell-based
Text: Assays useful for testing a variety of biological activities of BPI protein products, including BPI-derived peptides, are described in co-owned U.S. Pat. Nos. 5,733,872; 5,763,567; 5,652,332; and 5,856,438 and corresponding PCT Publication Nos. WO 94/20532 (PCT/US94/02465) and WO 95/19372 (PCT/US94/10427) and U.S. Pat. No. 5,858,974 and corresponding PCT Publications Nos. WO 96/08509 (PCT/US95/09262) and WO 97/04008 (PCT/US96/03845), incorporated herein by reference. These activities include antimicrobial (including antibacterial and antifungal), LPS binding, LPS neutralization and additional assays of heparin binding as well as heparin neutralization.

Compound	Assay A: percent heparin neutralization relative to protamine (100%) [1]	Assay B: percent heparin neutralization relative to protamine (100%) [1]	IC50 [2]	% Inhibition [3]	LPS neutralization activity (LPS)	antimicrobial activity [4]
CC[C@@H](C)[C@@H](NC(=O)[C@@H](CCCCN)NC(=O)[C@H](NC(=O)[C@@H](CO)NC(=O)CNC(=O)[C@@H](CCCCN)NC(=O)[C@@H](Cc1cccc2ccccc12)NC(=O)[C@@H](CCCCN)NC(=O)[C@@H](C)NC(=O)[C@@H](CCC(N)=O)NC(=O)[C@@H](Cc1cccc2ccccc12)NC(=O)[C@@H](CCCNC(=N)N)NC(=O)[C@@H](Cc1ccccc1)NC(=O)[C@@H](CC(C)C)NC(=O)[C@H](N)CCCCN)[C@H](C)CC)C(N)=O [XMP.394, k-l-f-r-(naph-a)-q-a-k-(naph-a)-k-g-s-i-k-i] (H-[dK][dL][dF][dR][d1Nal][dQ][dA][dK][d1Nal][dK]G[dS][dI][dK][dI]-NH2; N-terminus assumed)	143%	133%	4.3 ± 0.5 µg/mL (≈ 2.25 µM)	54.6%		
CC[C@@H](C)[C@@H](NC(=O)[C@@H](CO)NC(=O)CNC(=O)[C@@H](CCCCN)NC(=O)[C@@H](Cc1cccc2ccccc12)NC(=O)[C@@H](CCCCN)NC(=O)[C@@H](C)NC(=O)[C@@H](CCC(N)=O)NC(=O)[C@@H](Cc1cccc2ccccc12)NC(=O)[C@@H](CCCNC(=N)N)NC(=O)[C@@H](Cc1ccccc1)NC(=O)[C@@H](CC(C)C)NC(=O)[C@H](N)CCCCN)C(N)=O [XMP.625, k-l-f-r-(naph-a)-q-a-k-(naph-a)-k-g-s-i] (H-[dK][dL][dF][dR][d1Nal][dQ][dA][dK][d1Nal][dK]G[dS][dI]-NH2)	79%	125%			showed activity	
CC(C)C[C@@H](NC(=O)[C@H](N)CCCCN)C(=O)N[C@H](Cc1ccccc1)C(=O)N[C@H](CCCNC(=N)N)C(=O)N[C@H](Cc1cccc2ccccc12)C(=O)N[C@H](CCC(N)=O)C(=O)N[C@H](C)C(=O)N[C@H](CCCCN)C(=O)N[C@H](Cc1cccc2ccccc12)C(=O)N[C@H](CCCCN)C(=O)NCC(=O)N[C@H](CO)C(N)=O [XMP.626, k-l-f-r-(naph-a)-q-a-k-(naph-a)-k-g-s] (H-[dK][dL][dF][dR][d1Nal][dQ][dA][dK][d1Nal][dK]G[dS]-NH2)	99%	80%			showed activity	
CC(C)C[C@@H](NC(=O)[C@H](N)CCCCN)C(=O)N[C@H](Cc1ccccc1)C(=O)N[C@H](CCCNC(=N)N)C(=O)N[C@H](Cc1cccc2ccccc12)C(=O)N[C@H](CCC(N)=O)C(=O)N[C@H](C)C(=O)N[C@H](CCCCN)C(=O)N[C@H](Cc1cccc2ccccc12)C(=O)N[C@H](CCCCN)C(N)=O [XMP.628, k-l-f-r-(naph-a)-q-a-k-(naph-a)-k] (H-[dK][dL][dF][dR][d1Nal][dQ][dA][dK][d1Nal][dK]-NH2)	107%	68%			showed activity	highest antimicrobial activities
CC[C@@H](C)[C@@H](NC(=O)[C@@H](CCCCN)NC(=O)[C@H](NC(=O)CNC(=O)[C@@H](CCCCN)NC(=O)[C@@H](Cc1cccc2ccccc12)NC(=O)[C@@H](CCCCN)NC(=O)[C@@H](C)NC(=O)[C@@H](CCC(N)=O)NC(=O)[C@@H](Cc1cccc2ccccc12)NC(=O)[C@@H](CCCNC(=N)N)NC(=O)[C@@H](Cc1ccccc1)NC(=O)[C@@H](CC(C)C)NC(=O)[C@H](N)CCCCN)[C@H](C)CC)C(N)=O [XMP.656, k-l-f-r-(naph-a)-q-a-k-(naph-a)-k-g-i-k-i] (H-[dK][dL][dF][dR][d1Nal][dQ][dA][dK][d1Nal][dK]G[dI][dK][dI]-NH2; N-terminus assumed)	74%	65%	2.6 ± 0.8 µg/mL (≈ 1.43 µM)			highest antimicrobial activities
k-l-f-k-(naph-a)-q-a-k-(naph-a) ([dK][dL][dF][dK][dNal][dQ][dA][dK][dNal]; not fully specified; printed as k-l-f-k-(naph-a)-q-a-k-(naph-a)) [XMP.776]	74%	75%				highest antimicrobial activities
